HELM strings list units from the 5' end as sugar, base in round brackets, then linkage (d deoxyribose, r ribose, m 2'-O-methyl, p phosphodiester). Strings are as the collection lists them, not checked against the first reports. ss, as = sense and antisense strand; [lna] = locked nucleic acid (LNA); [hna] = hexitol nucleic acid; [s4r] = 4'-thioribose; [fl2r] = 2'-fluoro
Settings: siRNA
Further: test system not given here.

“RNA1{r(U)p.r(C)p.r(C)p.r(A)p.r(A)p.r(G)p.r(C)p.r(U)p.r(U)p.r(C)p.r(C)p.r(U)p.r(C)p.r(G)p.r(U)p.r(U)p.r(G)p.r(G)p.r(U)p.r(T)p.r(T)}|RNA2{r(A)p.r(C)p.[fl2r](C)p.r(A)p.r(A)p.r(C)p.r(G)p.r(A)p.r(G)p.r(G)p.r(A)p.r(A)p.r(G)p.r(C)p.r(U)p.[fl2r](U)p.r(G)p.r(G)p.r(A)p.r(T)p.r(T)}$$$RNA1{StrandType:ss}|RNA2{StrandType:as}$” showed a target mRNA knockdown of 71%.

Substance “RNA1{r(A)p.r(A)p.r(A)p.r(C)p.r(C)p.r(C)p.r(C)p.m(U)p.r(A)p.r(G)p.r(A)p.r(G)p.r(G)p.r(G)p.m(C)p.r(A)p.r(A)p.r(G)p.r(U)p.r(T)p.r(T)}|RNA2{r(A)p.r(C)p.r(U)p.m(U)p.r(G)p.r(C)p.r(C)p.r(C)p.r(U)p.r(C)p.m(U)p.r(A)p.r(G)p.r(G)p.r(G)p.r(G)p.r(U)p.r(U)p.r(U)p.r(T)p.r(T)}$$$RNA1{StrandType:ss}|RNA2{StrandType:as}$” has a target mRNA knockdown of 78%.

In the case of “RNA1{m(G)p.m(A)p.m(G)p.m(G)p.m(A)p.m(A)p.m(G)p.m(A)p.r(U)p.m(G)p.m(A)p.m(G)p.r(U)p.r(U)p.m(G)p.r(U)p.m(A)p.r(C)p.r(C)p.r(T)p.r(T)}|RNA2{r(G)p.r(G)p.r(U)p.r(A)p.r(C)p.r(A)p.r(A)p.r(C)p.r(U)p.r(C)p.r(A)p.r(U)p.r(C)p.r(U)p.r(U)p.r(C)p.r(C)p.r(U)p.r(C)p.r(T)p.r(T)}$$$RNA1{StrandType:ss}|RNA2{StrandType:as}$”, the target mRNA knockdown is reported as 70%.

For “RNA1{[s4r](C)p.[s4r](G)p.r(U)p.r(A)p.r(C)p.r(G)p.r(C)p.r(G)p.r(G)p.r(A)p.r(A)p.r(U)p.r(A)p.r(C)p.r(U)p.r(U)p.r(C)p.r(G)p.r(A)p.r(T)p.r(T)}|RNA2{r(U)p.r(C)p.r(G)p.r(A)p.r(A)p.r(G)p.r(U)p.r(A)p.r(U)p.r(U)p.r(C)p.r(C)p.r(G)p.r(C)p.r(G)p.r(U)p.r(A)p.[s4r](C)p.[s4r](G)p.r(T)p.r(T)}$$$RNA1{StrandType:ss}|RNA2{StrandType:as}$”, the target mRNA knockdown was 91.3%.

With “RNA1{m(A)p.r(G)p.m(C)p.r(G)p.m(A)p.r(U)p.m(C)p.r(C)p.m(C)p.r(G)p.m(A)p.r(A)p.m(C)p.r(A)p.m(A)p.r(G)p.m(U)p.r(A)p.m(U)p.r(T)p.r(T)}|RNA2{r(A)p.r(U)p.r(A)p.m(C)p.r(U)p.r(U)p.r(G)p.r(U)p.r(U)p.m(C)p.r(G)p.r(G)p.r(G)p.r(A)p.r(U)p.m(C)p.r(G)p.m(C)p.r(U)p.r(T)p.r(T)}$$$RNA1{StrandType:ss}|RNA2{StrandType:as}$” the target mRNA knockdown was 34%.

Substance “RNA1{r(G)p.r(A)p.r(C)p.r(G)p.[hna](U)p.r(A)p.r(A)p.[hna](A)p.r(C)p.r(G)p.[hna](G)p.r(C)p.r(C)p.[hna](A)p.r(C)p.r(A)p.r(A)p.r(G)p.r(U)p.r(U)p.d(T)}|RNA2{r(A)p.r(C)p.r(U)p.r(U)p.r(G)p.r(U)p.r(G)p.r(G)p.r(C)p.r(C)p.r(G)p.r(U)p.r(U)p.r(U)p.r(A)p.r(C)p.r(G)p.r(U)p.[lna](C)p.[lna](G)p.r(C)}$$$RNA1{StrandType:ss}|RNA2{StrandType:as}$” has a target mRNA knockdown of 77.3%.

In the case of “RNA1{r(A)p.r(A)p.m(C)p.r(A)p.r(G)p.r(U)p.r(C)p.r(C)p.r(U)p.m(U)p.r(A)p.r(G)p.r(C)p.m(U)p.r(A)p.r(C)p.r(G)p.r(C)p.m(U)p.r(T)p.r(T)}|RNA2{r(A)p.r(G)p.r(C)p.r(G)p.m(U)p.r(A)p.r(G)p.r(C)p.m(U)p.r(A)p.r(A)p.r(G)p.r(G)p.r(A)p.r(C)p.m(U)p.r(G)p.r(U)p.r(U)p.r(T)p.r(T)}$$$RNA1{StrandType:ss}|RNA2{StrandType:as}$”, the target mRNA knockdown is reported as 85%.

“RNA1{r(G)p.r(A)p.r(C)p.r(G)p.r(U)p.r(A)p.r(A)p.r(A)p.r(C)p.r(G)p.r(G)p.r(C)p.r(C)p.r(A)p.r(C)p.r(A)p.r(A)p.r(G)p.r(U)p.[lna](T)p.[lna](C)}|RNA2{r(A)p.r(C)p.[lna](T)p.r(U)p.r(G)p.[lna](T)p.r(G)p.r(G)p.r(C)p.r(C)p.r(G)p.r(U)p.r(U)p.[lna](T)p.r(A)p.r(C)p.r(G)p.[lna](T)p.r(C)p.[lna](G)p.[lna](C)}$$$RNA1{StrandType:ss}|RNA2{StrandType:as}$” gave a target mRNA knockdown of 3%.

“RNA1{r(G)p.r(A)p.r(G)p.[fl2r](U)p.r(A)p.r(U)p.r(U)p.r(U)p.r(C)p.r(C)p.r(G)p.r(C)p.[fl2r](U)p.r(G)p.r(G)p.r(A)p.r(A)p.r(C)p.r(U)p.r(T)p.r(T)}|RNA2{r(A)p.r(G)p.r(U)p.r(U)p.r(C)p.[fl2r](C)p.r(A)p.r(G)p.r(C)p.r(G)p.r(G)p.r(A)p.r(A)p.r(A)p.[fl2r](U)p.r(A)p.r(C)p.r(U)p.r(C)p.r(T)p.r(T)}$$$RNA1{StrandType:ss}|RNA2{StrandType:as}$” showed a target mRNA knockdown of 73%.

“RNA1{r(A)p.r(A)p.r(C)p.r(C)p.r(C)p.r(A)p.r(C)p.r(C)p.r(A)p.r(C)p.r(A)p.r(G)p.r(C)p.r(U)p.r(A)p.r(G)p.r(A)p.r(A)p.r(C)p.r(U)p.r(U)}|RNA2{r(A)p.r(A)p.m(G)p.m(U)p.m(U)p.r(C)p.m(U)p.r(A)p.m(G)p.r(C)p.m(U)p.m(G)p.m(U)p.m(G)p.m(G)p.m(U)p.m(G)p.m(G)p.r(G)p.m(U)p.m(U)}$$$RNA1{StrandType:ss}|RNA2{StrandType:as}$” showed a target mRNA knockdown of 15%.

“RNA1{[lna](G)p.r(G)p.r(C)p.r(C)p.r(U)p.r(U)p.r(U)p.r(C)p.r(A)p.r(C)p.r(U)p.r(A)p.r(C)p.r(U)p.r(C)p.r(C)p.r(U)p.r(A)p.r(C)p.[lna](G)p.[lna](A)}|RNA2{r(G)p.r(U)p.r(A)p.r(G)p.r(G)p.r(A)p.r(G)p.r(U)p.r(A)p.r(G)p.r(U)p.r(G)p.r(A)p.r(A)p.r(A)p.r(G)p.r(G)p.r(C)p.r(C)p.r(A)p.r(G)}$$$RNA1{StrandType:ss}|RNA2{StrandType:as}$” showed a target mRNA knockdown of 83%.

In the case of “RNA1{r(G)p.r(A)p.r(C)p.r(G)p.[hna](U)p.r(A)p.r(A)p.[hna](A)p.r(C)p.r(G)p.[hna](G)p.r(C)p.r(C)p.[hna](A)p.r(C)p.r(A)p.r(A)p.r(G)p.[hna](U)p.[hna](U)p.d(T)}|RNA2{r(A)p.r(C)p.r(U)p.r(U)p.r(G)p.r(U)p.r(G)p.r(G)p.r(C)p.r(C)p.r(G)p.r(U)p.r(U)p.r(U)p.r(A)p.r(C)p.r(G)p.[hna](U)p.[hna](C)p.[hna](G)p.d(T)}$$$RNA1{StrandType:ss}|RNA2{StrandType:as}$”, the target mRNA knockdown is reported as 74.2%.

“RNA1{m(G)p.r(G)p.m(G)p.r(G)p.m(C)p.r(U)p.m(C)p.r(U)p.m(U)p.r(C)p.m(U)p.r(A)p.m(C)p.r(A)p.m(U)p.r(U)p.m(C)p.r(C)p.m(C)p.r(T)p.r(T)}|RNA2{r(G)p.r(G)p.r(G)p.r(A)p.r(A)p.r(U)p.r(G)p.r(U)p.r(A)p.r(G)p.r(A)p.r(A)p.r(G)p.r(A)p.r(G)p.r(C)p.r(C)p.r(C)p.r(C)p.r(T)p.r(T)}$$$RNA1{StrandType:ss}|RNA2{StrandType:as}$” gave a target mRNA knockdown of 51%.

Substance “RNA1{m(G)p.m(G)p.m(A)p.r(C)p.r(U)p.m(A)p.r(C)p.r(U)p.m(A)p.m(A)p.r(C)p.r(C)p.r(U)p.r(C)p.r(C)p.m(A)p.m(G)p.r(U)p.r(U)p.r(T)p.r(T)}|RNA2{r(A)p.r(A)p.r(C)p.r(U)p.r(G)p.r(G)p.r(A)p.r(G)p.r(G)p.r(U)p.r(U)p.r(A)p.r(G)p.r(U)p.r(A)p.r(G)p.r(U)p.r(C)p.r(C)p.r(T)p.r(T)}$$$RNA1{StrandType:ss}|RNA2{StrandType:as}$” has a target mRNA knockdown of 65%.

From the OligoGym collection
